# Measurements from patent US20080292584A1 (priority 2005, published 2008).
# Values joined by “and” are separate entries in the source; they are usually repeats but may differ in a detail not shown here. Identical values can stand only once.
# Molecular target: CYP2C9 (Homo sapiens, UniProt P11712)
# Experiment: Metabolism of metaxalone by expressed recombinant human CYP2C9 (Example 1)
# Conditions: 30 min
# Sequence of CYP2C9 (P11712 whole entry): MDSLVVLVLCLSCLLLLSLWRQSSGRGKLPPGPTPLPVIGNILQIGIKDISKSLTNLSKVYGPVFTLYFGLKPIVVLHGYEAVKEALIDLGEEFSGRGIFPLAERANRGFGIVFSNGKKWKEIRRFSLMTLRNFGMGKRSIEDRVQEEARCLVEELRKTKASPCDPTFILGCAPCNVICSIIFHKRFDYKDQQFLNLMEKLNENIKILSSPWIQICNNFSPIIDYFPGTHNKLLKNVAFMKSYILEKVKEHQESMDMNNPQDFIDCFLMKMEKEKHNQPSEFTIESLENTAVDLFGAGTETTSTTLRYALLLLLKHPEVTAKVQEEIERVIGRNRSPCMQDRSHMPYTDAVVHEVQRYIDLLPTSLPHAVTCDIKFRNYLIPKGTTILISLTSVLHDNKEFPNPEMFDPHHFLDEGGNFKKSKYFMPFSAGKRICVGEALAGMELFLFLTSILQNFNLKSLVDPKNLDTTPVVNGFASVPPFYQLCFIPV
compound,measurement,setting,value
"Cc1cc(C)cc(OCC2CNC(=O)O2)c1 (stereo not drawn) [metaxalone, 5-[(3,5-dimethylphenoxy)methyl]-2-oxazolidinone]",Metaxalone Present Adjusted Individual,metaxalone 0.5 μM,0.360 µM and 0.348 µM
same,Metaxalone Present Adjusted Mean ± SD,metaxalone 0.5 μM,0.355 ± 0.00608 µM
same,Metaxalone Present Raw,metaxalone 0.5 μM,0.18 µM and 0.1778 µM and 0.174 µM
same,Percent of Metabolic Negative Control Individual,metaxalone 0.5 μM,103% and 102%
same,Percent of Metabolic Negative Control Mean ± SD,metaxalone 0.5 μM,102 ± 1.75%
same,Metaxalone Present Adjusted Individual,metaxalone 2.5 μM,1.94 µM and 1.93 µM and 1.89 µM
same,Metaxalone Present Adjusted Mean ± SD,metaxalone 2.5 μM,1.92 ± 0.0246 µM
same,Metaxalone Present Raw,metaxalone 2.5 μM,0.9684 µM and 0.9659 µM and 0.946 µM
same,Percent of Metabolic Negative Control Individual,metaxalone 2.5 μM,101% and 100%
same,Percent of Metabolic Negative Control Mean ± SD,metaxalone 2.5 μM,99.7 ± 1.28%
same,Metaxalone Present Adjusted Individual,metaxalone 25 μM,21.3 µM and 21.6 µM and 21.5 µM
same,Metaxalone Present Adjusted Mean ± SD,metaxalone 25 μM,21.5 ± 0.144 µM
same,Metaxalone Present Raw,metaxalone 25 μM,10.66 µM and 10.8 µM and 10.73 µM
same,Percent of Metabolic Negative Control Individual,metaxalone 25 μM,100% and 102% and 101%
same,Percent of Metabolic Negative Control Mean ± SD,metaxalone 25 μM,101 ± 0.675%
